This passage reports IC50 results from patent publication US8796259B2, “N3-heteroaryl substituted triazoles and N5-heteroaryl substituted triazoles useful as axl inhibitors” (Rigel Pharmaceuticals, Inc., priority 2006, dated 2014).

In the test the target is T1, Axl (Homo sapiens, UniProt P30530).
T1 construct: endogenous in cells; host or cells: HeLa cells
T1 sequence (P30530 26-894): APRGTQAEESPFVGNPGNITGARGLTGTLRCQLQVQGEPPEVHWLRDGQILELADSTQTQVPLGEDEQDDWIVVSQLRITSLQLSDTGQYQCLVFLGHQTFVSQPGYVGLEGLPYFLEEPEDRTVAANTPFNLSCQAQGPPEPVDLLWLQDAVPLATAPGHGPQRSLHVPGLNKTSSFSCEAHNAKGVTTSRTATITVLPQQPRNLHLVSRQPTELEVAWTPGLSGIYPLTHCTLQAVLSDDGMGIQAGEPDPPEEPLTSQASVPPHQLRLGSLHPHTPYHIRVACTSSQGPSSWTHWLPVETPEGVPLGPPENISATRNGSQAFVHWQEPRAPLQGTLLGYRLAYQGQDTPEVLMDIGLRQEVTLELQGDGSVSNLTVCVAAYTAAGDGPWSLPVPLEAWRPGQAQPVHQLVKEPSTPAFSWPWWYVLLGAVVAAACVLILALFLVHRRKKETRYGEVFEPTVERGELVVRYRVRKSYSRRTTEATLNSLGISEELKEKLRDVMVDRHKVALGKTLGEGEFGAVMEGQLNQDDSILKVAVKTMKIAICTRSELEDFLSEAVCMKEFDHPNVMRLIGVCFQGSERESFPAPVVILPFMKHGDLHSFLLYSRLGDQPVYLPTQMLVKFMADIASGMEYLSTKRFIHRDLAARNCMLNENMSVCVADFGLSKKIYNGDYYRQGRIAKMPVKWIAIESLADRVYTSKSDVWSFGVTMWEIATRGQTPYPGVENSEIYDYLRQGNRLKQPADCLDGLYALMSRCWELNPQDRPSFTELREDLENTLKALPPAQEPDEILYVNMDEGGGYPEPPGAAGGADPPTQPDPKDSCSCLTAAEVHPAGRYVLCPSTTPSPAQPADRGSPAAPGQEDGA
In words: Phospho-Akt in-cell Western assay (inhibition of Axl activity, Axl-antibody cross-linking stimulation). The class given is cell-based. Conditions: Hela cells, phospho-Akt readout. In short, it runs like this:
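HeLa cells on poly-L-lysine were starved 24 h in 0.5% FCS/DMEM with 500 ng/mL Axl/Fc, pre-treated with compound 1 h at 37 °C, then stimulated 5 min by cross-linked mouse anti-Axl/biotin anti-mouse antibody clusters. After formaldehyde fixation, phospho-Akt was detected by rabbit anti-phospho-Akt and HRP secondary with chemiluminescence read-out.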

[1] abbreviates: compounds of formula (Ia), Table 1.
Setting [2] is: compounds of formula (Ib), Table 2.

Under setting [1], `Cc1csc2c(-n3nc(Nc4ccc(C=CCN5CCN(C)CC5)nc4)nc3N)ncnc12` [compound 123, 1-(7-methylthieno [3,2-d]pyrimidin-4-yl)-N^3-(2-(3-(4-methyl-piperazin-1-yl)propen-1-yl)pyridin-5-yl)-1H-1,2,4-triazole-3,5-diamine] had a concentration for half-maximal inhibition (IC50) of under 1000 nM.
Same read-out and setting: then `Cc1csc2c(-n3nc(Nc4ccc(C=CCN5CCN(C(C)C)CC5)nc4)nc3N)ncnc12` [compound 124, 1-(7-methylthieno [3,2-d]pyrimidin-4-yl)-N^3-(2-(3-(4-isopropyl-piperazin-1-yl)propen-1-yl)pyridin-5-yl)-1H-1,2,4-triazole-3,5-diamine], with under 1000 nM; and `Cc1csc2c(-n3nc(Nc4ccc(C=CCN5CCN(C6CCCC6)CC5)nc4)nc3N)ncnc12` [compound 125, 1-(7-methylthieno [3,2-d]pyrimidin-4-yl)-N^3-(2-(3-(4-cyclopentyl-piperazin-1-yl)propen-1-yl)pyridin-5-yl)-1H-1,2,4-triazole-3,5-diamine], with under 1000 nM; and `Cc1csc2c(-n3nc(Nc4ccc(C=CCN5CCOCC5)nc4)nc3N)ncnc12` [compound 126, 1-(7-methylthieno [3,2-d]pyrimidin-4-yl)-N^3-(2-(3-(morpholin-4-yl)propen-1-yl)pyridin-5-yl)-1H-1,2,4-triazole-3,5-diamine], with under 1000 nM.
`Cc1csc2c(-n3nc(Nc4ccc(C=CCN5CCCCC5)nc4)nc3N)ncnc12` [compound 127, 1-(7-methylthieno [3,2-d]pyrimidin-4-yl)-N^3-(2-(3-(piperidin-1-yl)propen-1-yl)pyridin-5-yl)-1H-1,2,4-triazole-3,5-diamine] displayed an IC50 under setting [1] of under 1000 nM.
Still for that read-out and setting: the value for `Cc1csc2c(-n3nc(Nc4ccc(C=CCN5CCC(N6CCN(C)CC6)CC5)nc4)nc3N)ncnc12` [compound 128, 1-(7-methylthieno [3,2-d]pyrimidin-4-yl)-N^3-(2-(3-(4-(4-methyl-piperazin-1-yl)piperidin-1-yl)propen-1-yl)pyridin-5-yl)-1H-1,2,4-triazole-3,5-diamine] was under 1000 nM.
The same measure, in the same setting: the value for `Cc1csc2c(-n3nc(Nc4ccc(C=CCN5CCC(N6CCCCC6)CC5)nc4)nc3N)ncnc12` [compound 129, 1-(7-methylthieno [3,2-d]pyrimidin-4-yl)-N^3-(2-(3-(4-piperidin-1-ylpiperidin-1-yl)propen-1-yl)pyridin-5-yl)-1H-1,2,4-triazole-3,5-diamine] was under 1000 nM.
Still for that read-out and setting: then `Cc1cc(Nc2nc(N)n(-c3cc(-c4ccccc4)ncn3)n2)cnc1N1CCC(N2CCCC2)CC1` [compound 130, 1-(6-phenyl-pyrimidine-4-yl)-N^3-(3-methyl-2-(4-pyrrolidin-1-ylpiperidin-1-yl)pyridin-5-yl)-1H-1,2,4-triazole-3,5-diamine], with under 1000 nM.
`Cc1csc2c(-n3nc(Nc4cnc(N5CCC(CN6CCCCC6)CC5)nc4)nc3N)nc(Cl)nc12` [compound 131, 1-(2-chloro-7-methylthieno [3,2-d]pyrimidin-4-yl)-N^3-(2-(4-(piperidin-1-ylmethyl)piperidin-1-yl)pyrimidin-5-yl)-1H-1,2,4-triazole-3,5-diamine] came in with an IC50 under setting [1] of under 1000 nM.
The molecule `Cc1cc(Nc2nc(N)nn2-c2nnc(C)c3ccsc23)cnc1N1CCN([C@H]2C[C@@H]3CC[C@H]2C3)CC1` [compound 132, 1-(4-methylthieno[2,3-d]pyridazin-7-yl)-N^5-(2-(4-(1S,2S,4R)-bicyclo[2.2.1]heptan-2-ylpiperazin-1-yl)-3-methylpyridin-5-yl)-1H-1,2,4-triazole-3,5-diamine] had an IC50 under setting [2] of over 20000 nM.
Regarding `Cc1csc2c(-n3nc(N)nc3Nc3ccc(C=CCN4CCC(N5CCN(C)CC5)CC4)nc3)ncnc12` [compound 133, 1-(7-methylthieno[3,2-d]pyrimidin-4-yl)-N^5-(2-(3-(4-(4-methylpiperazin-1-yl)piperidin-1-yl)propen-1-yl)pyridin-5-yl)-1H-1,2,4-triazole-3,5-diamine], under setting [2], the half-inhibitory concentration (IC50) was under 1000 nM.

For orientation: IC50 means the point on the concentration scale where inhibition reaches its midpoint. A higher IC50 goes with lower potency.
